The supplement of paper PMC10307832

Assays:
Assay in all cases: relative viability (nuclei count vs DMSO), 5 days (fraction); higher = more cells survive
Dasatinib + Bortezomib = compound: Cc1nc(Nc2ncc(C(=O)Nc3c(C)cccc3Cl)s2)cc(N2CCN(CCO)CC2)n1 [Dasatinib] + CC(C)C[C@H](NC(=O)[C@H](Cc1ccccc1)NC(=O)c1cnccn1)B(O)O [Bortezomib] (partner 0.002 µM)
Procedure, shortened: (§1)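 One day after seeding in 1536-well plates, lung cancer cell lines were dosed by pin tool. Dosing was either single-drug or a fixed anchor-drug dose plus five library-drug doses (not always all listed) in √10 steps. After 5 days, nuclei were stained in one fix-and-stain step and counted on 4× images, and relative viability is the nuclei count of treated wells over that of vehicle wells, given as the median of duplicate plates.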

Dasatinib + Crizotinib = compound: Cc1nc(Nc2ncc(C(=O)Nc3c(C)cccc3Cl)s2)cc(N2CCN(CCO)CC2)n1 [Dasatinib] + C[C@@H](Oc1cc(-c2cnn(C3CCNCC3)c2)cnc1N)c1c(Cl)ccc(F)c1Cl [Crizotinib] (partner 1 µM)
Procedure, shortened: as §1

ALW-II-49-7 + Lapatinib = compound: Cc1ccc(C(=O)Nc2cccc(C(F)(F)F)c2)cc1Nc1cncc(C(N)=O)c1 [ALW-II-49-7] + CS(=O)(=O)CCNCc1ccc(-c2ccc3ncnc(Nc4ccc(OCc5cccc(F)c5)c(Cl)c4)c3c2)o1 [Lapatinib] (partner 2 µM)
Procedure, shortened: as §1

XMD13-2 + Crizotinib = compound: C1CC1C(=O)NC2=NNC3=C2C=CC(=C3)C4=CC(=CC=C4)C(=O)NC5CC5 [XMD13-2] + C[C@@H](Oc1cc(-c2cnn(C3CCNCC3)c2)cnc1N)c1c(Cl)ccc(F)c1Cl [Crizotinib] (partner 1 µM)
Procedure, shortened: as §1

Row | Cell Line | relative viability (Dasatinib + Bortezomib; first compound 0.005 µM) | relative viability (Dasatinib + Bortezomib; first compound 0.01581 µM) | relative viability (Dasatinib + Bortezomib; first compound 0.05 µM) | relative viability (Dasatinib + Bortezomib; first compound 0.1581 µM) | relative viability (Dasatinib + Bortezomib; first compound 0.5 µM) | relative viability (Dasatinib + Crizotinib; first compound 0.005 µM) | relative viability (Dasatinib + Crizotinib; first compound 0.01581 µM) | relative viability (Dasatinib + Crizotinib; first compound 0.05 µM) | relative viability (Dasatinib + Crizotinib; first compound 0.1581 µM) | relative viability (Dasatinib + Crizotinib; first compound 0.5 µM) | relative viability (ALW-II-49-7 + Lapatinib; first compound 0.08 µM) | relative viability (ALW-II-49-7 + Lapatinib; first compound 0.253 µM) | relative viability (ALW-II-49-7 + Lapatinib; first compound 0.8 µM) | relative viability (ALW-II-49-7 + Lapatinib; first compound 2.53 µM) | relative viability (ALW-II-49-7 + Lapatinib; first compound 8 µM) | relative viability (XMD13-2 + Crizotinib; first compound 0.05 µM) | relative viability (XMD13-2 + Crizotinib; first compound 0.1581 µM) | relative viability (XMD13-2 + Crizotinib; first compound 0.5 µM) | relative viability (XMD13-2 + Crizotinib; first compound 1.581 µM) | relative viability (XMD13-2 + Crizotinib; first compound 5 µM)
1 | 201T | 1.04 | 0.938 | 1.01 | 0.982 | 0.623 | 0.972 | 0.947 | 0.933 | 0.729 | 0.458 | 1.08 | 1.1 | 1.05 | 1.03 | 0.903 | 1 | 1.01 | 1 | 0.988 | 1.07
2 | A549 | – | – | – | – | – | 0.563 | 0.642 | 0.415 | 0.264 | 0.131 | 0.958 | 1.03 | 1.01 | 1.05 | 0.978 | 0.994 | 0.736 | 0.721 | 0.664 | 0.824
3 | A-427 | 1 | 0.983 | 0.839 | 0.663 | 0.524 | 0.761 | 0.719 | 0.701 | 0.495 | 0.442 | 0.988 | 1.13 | 1.06 | 1.07 | 0.969 | 1.01 | 0.872 | 0.812 | 0.724 | 0.34
4 | ABC-1 | 0.295 | 0.303 | 0.247 | 0.269 | 0.351 | 0.929 | 0.856 | 0.699 | 0.586 | 0.367 | 1.31 | 1.07 | 1.1 | 0.311 | 0.999 | 1.4 | 1.41 | 1.16 | 1.03 | 0.675
5 | BEN | 0.628 | 0.439 | 0.425 | 0.315 | 0.362 | 0.706 | 0.397 | 0.493 | 0.378 | 0.332 | 0.721 | 0.814 | 0.649 | – | 0.629 | 0.919 | 0.913 | 0.852 | 0.989 | 0.917
6 | CAL-12T | 0.992 | 1.06 | 0.875 | 0.354 | 0.207 | 0.86 | 0.627 | 0.457 | 0.128 | 0.0903 | 0.641 | – | – | 0.568 | 0.697 | 0.76 | 0.816 | 0.572 | 0.538 | 0.874
7 | COR-L23 | 0.938 | 0.849 | 0.862 | 0.654 | 0.646 | 0.514 | 0.5 | 0.35 | 0.234 | 0.267 | 0.919 | 0.656 | 1.16 | 1.01 | 1.08 | 0.746 | 0.51 | 0.765 | 0.653 | 0.759
8 | COR-L 105 | 0.611 | 0.51 | 0.498 | 0.318 | 0.273 | 0.71 | 0.59 | 0.528 | 0.286 | 0.285 | 0.318 | 0.372 | 0.335 | 0.359 | 0.416 | 1 | 0.843 | 0.881 | 0.701 | 0.927
9 | Calu-6 | 0.869 | 0.855 | 0.746 | 0.642 | 0.513 | 0.701 | 0.618 | 0.519 | 0.341 | 0.344 | 0.896 | 1.08 | 1.02 | 1.59 | 1.02 | 0.958 | 0.813 | 0.898 | 0.773 | 0.643
10 | ChaGo-K-1 | 0.847 | 1.03 | 0.99 | 0.891 | 0.864 | 1.14 | 1.02 | 1 | 0.862 | 0.734 | – | – | – | – | – | 1.26 | 1.08 | 1.25 | – | 1.14
11 | EBC-1 | 0.583 | 0.459 | 0.486 | 0.49 | 0.436 | 0.203 | 0.187 | 0.205 | 0.183 | 0.172 | 0.197 | 0.186 | 0.15 | 0.231 | 0.162 | 0.225 | 0.208 | 0.204 | 0.178 | 0.199
12 | EKVX | 0.929 | 0.807 | 0.87 | 0.501 | 0.146 | 0.994 | 0.633 | 0.528 | 0.314 | 0.138 | 0.194 | 0.188 | 0.173 | 0.127 | 0.188 | 1.05 | 1.21 | 1.06 | 0.977 | 1.12
13 | EMC-BAC-2 | 1.06 | 0.876 | 0.734 | 0.634 | 0.367 | 0.754 | 0.516 | 0.425 | 0.247 | 0.221 | 0.829 | 0.812 | 0.888 | 0.937 | 0.814 | 0.818 | 0.79 | 0.795 | 0.745 | 0.36
14 | EPLC-272H | 0.921 | 0.89 | 0.808 | 0.864 | 0.429 | 0.99 | 0.765 | 0.787 | 0.537 | 0.326 | 0.666 | 0.916 | 1.07 | 1.08 | 0.782 | 1.02 | 0.76 | 1.09 | 0.802 | 0.25
15 | H3255 | 0.795 | 0.749 | 0.623 | 0.504 | 0.299 | 0.901 | 0.757 | 0.617 | 0.557 | 0.27 | 0.27 | 0.363 | 0.266 | 0.225 | 0.212 | 0.972 | 0.694 | 0.699 | 0.884 | 0.784
16 | HARA | 1.19 | 0.881 | 0.897 | 0.501 | 0.184 | 1.08 | 0.754 | 0.71 | 0.261 | 0.133 | 0.675 | 0.689 | 0.87 | 0.964 | 0.866 | 1.2 | 1.05 | 1.13 | 1.1 | 0.486
17 | HCC-15 | 1.01 | 1.01 | 1.11 | 0.965 | 0.743 | 0.873 | 0.699 | 0.743 | 0.514 | 0.489 | 0.811 | 0.818 | 0.793 | 0.815 | 0.764 | 0.925 | 0.766 | 0.857 | 0.793 | 0.472
